Tests used:
Assay type in all cases: cell-based
[1] = target: T1, human TLR7 (Homo sapiens, UniProt Q9NYK1); test: TLR7 inhibition reporter assay (HEK-Blue cells, SEAP reporter, gardiquimod stimulation); conditions: HEK-Blue cells overexpressing human TLR7, SEAP reporter, gardiquimod 7.5 μM
T1 construct: host or cells: HEK-Blue cells
T1 sequence (Q9NYK1 27-1049): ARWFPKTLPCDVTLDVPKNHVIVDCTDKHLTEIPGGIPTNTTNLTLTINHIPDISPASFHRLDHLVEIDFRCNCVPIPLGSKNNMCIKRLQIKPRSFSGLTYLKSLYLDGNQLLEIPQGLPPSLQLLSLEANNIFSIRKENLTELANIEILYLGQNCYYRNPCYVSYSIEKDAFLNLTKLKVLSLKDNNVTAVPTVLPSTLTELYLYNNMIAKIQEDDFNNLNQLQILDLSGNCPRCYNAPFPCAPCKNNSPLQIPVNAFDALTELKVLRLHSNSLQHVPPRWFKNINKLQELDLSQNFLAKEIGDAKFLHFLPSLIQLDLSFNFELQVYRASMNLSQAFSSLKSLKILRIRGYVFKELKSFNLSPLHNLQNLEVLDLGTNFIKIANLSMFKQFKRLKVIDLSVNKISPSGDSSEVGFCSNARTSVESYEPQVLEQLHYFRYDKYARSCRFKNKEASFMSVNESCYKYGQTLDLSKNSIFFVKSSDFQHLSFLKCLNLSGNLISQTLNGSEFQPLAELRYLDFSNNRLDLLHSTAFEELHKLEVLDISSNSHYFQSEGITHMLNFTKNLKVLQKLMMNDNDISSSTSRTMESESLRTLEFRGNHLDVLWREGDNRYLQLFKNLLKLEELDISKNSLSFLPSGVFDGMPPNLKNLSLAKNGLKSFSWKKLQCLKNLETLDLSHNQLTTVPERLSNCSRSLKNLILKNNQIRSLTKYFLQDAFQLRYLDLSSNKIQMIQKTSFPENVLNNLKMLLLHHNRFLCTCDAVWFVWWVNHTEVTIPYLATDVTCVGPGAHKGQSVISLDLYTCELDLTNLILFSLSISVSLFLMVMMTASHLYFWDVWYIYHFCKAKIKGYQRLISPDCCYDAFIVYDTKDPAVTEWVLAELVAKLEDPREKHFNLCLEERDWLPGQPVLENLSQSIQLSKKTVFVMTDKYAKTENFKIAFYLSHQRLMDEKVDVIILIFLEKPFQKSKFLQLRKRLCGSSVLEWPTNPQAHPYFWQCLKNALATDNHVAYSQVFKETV
Outline: (§1)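 Percent inhibition is derived from SEAP signal, scaled between agonist-plus-DMSO wells and wells given a known inhibitor. Test compounds (0.05 nM–50 μM) are pre-incubated 30 min at room temperature before agonist addition (TLR7: 7.5 μM gardiquimod; TLR8: 15.9 μM R848; TLR9: 5 nM ODN2006) and 22 h culture at 37 °C.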

[2] = target: T2, human TLR9 (Homo sapiens, UniProt Q9NR96); test: TLR9 inhibition reporter assay (HEK-Blue cells, SEAP reporter, ODN2006 stimulation); conditions: HEK-Blue cells overexpressing human TLR9, SEAP reporter, ODN2006 5 nM
T2 construct: host or cells: HEK-Blue cells
T2 sequence (Q9NR96 26-1032): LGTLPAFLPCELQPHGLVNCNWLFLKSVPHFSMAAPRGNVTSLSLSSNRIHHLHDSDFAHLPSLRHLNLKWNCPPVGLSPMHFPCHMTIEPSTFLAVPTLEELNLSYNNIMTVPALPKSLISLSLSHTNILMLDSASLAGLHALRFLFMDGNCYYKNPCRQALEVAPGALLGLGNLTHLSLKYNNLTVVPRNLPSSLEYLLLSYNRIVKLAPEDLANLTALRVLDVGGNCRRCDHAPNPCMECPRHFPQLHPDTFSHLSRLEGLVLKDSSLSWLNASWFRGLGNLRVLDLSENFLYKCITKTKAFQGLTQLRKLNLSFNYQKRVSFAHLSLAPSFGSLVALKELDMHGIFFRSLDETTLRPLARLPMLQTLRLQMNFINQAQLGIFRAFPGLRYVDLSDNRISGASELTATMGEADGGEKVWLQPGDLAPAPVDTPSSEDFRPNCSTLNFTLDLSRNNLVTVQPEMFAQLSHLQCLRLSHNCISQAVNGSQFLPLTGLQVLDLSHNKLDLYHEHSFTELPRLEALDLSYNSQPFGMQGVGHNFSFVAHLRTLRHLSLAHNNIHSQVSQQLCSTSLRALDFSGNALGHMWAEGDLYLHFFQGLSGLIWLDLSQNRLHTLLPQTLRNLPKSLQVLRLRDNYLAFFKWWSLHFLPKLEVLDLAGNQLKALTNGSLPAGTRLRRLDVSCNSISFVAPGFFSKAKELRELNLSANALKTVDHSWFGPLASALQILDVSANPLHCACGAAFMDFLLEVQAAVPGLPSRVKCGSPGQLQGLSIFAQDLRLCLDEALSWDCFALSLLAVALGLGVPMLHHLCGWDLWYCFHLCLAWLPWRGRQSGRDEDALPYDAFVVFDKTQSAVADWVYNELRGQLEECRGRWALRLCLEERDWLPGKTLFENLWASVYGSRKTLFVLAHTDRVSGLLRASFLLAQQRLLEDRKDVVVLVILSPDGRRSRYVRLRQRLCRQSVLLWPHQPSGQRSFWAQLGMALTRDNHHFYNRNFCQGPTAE
Outline: as §1

[3] = target: T3, human TLR8 (Homo sapiens, UniProt Q9NR97); test: TLR8 inhibition reporter assay (HEK-Blue cells, SEAP reporter, R848 stimulation); conditions: HEK-Blue cells overexpressing human TLR8, SEAP reporter, R848 15.9 μM
T3 construct: host or cells: HEK-Blue cells
T3 sequence (Q9NR97 27-1041): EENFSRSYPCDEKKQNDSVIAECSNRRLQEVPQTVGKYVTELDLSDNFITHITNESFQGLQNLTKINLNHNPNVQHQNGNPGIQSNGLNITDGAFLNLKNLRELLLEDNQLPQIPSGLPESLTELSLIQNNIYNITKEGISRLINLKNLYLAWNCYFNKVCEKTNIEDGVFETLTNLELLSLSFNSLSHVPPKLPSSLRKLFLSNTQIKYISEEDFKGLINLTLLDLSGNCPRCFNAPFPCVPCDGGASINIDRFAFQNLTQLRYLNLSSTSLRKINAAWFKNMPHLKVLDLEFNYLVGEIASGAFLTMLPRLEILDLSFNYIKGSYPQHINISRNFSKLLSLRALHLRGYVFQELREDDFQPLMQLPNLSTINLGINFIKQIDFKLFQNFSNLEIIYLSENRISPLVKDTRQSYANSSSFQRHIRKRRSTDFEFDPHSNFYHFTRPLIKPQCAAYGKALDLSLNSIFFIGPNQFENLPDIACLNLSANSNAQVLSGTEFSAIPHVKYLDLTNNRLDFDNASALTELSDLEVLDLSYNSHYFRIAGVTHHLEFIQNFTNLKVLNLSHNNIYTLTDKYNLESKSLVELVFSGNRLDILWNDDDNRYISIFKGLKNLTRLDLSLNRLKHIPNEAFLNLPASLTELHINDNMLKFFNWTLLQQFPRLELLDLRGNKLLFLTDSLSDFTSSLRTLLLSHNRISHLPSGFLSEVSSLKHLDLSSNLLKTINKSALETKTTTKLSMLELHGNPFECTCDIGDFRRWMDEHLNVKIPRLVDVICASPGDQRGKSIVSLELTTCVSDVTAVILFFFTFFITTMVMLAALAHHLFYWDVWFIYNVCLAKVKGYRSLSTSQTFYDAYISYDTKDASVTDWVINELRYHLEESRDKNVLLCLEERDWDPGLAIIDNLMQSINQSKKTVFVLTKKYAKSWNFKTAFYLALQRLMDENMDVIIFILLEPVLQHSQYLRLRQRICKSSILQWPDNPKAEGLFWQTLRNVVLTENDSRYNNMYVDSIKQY
Outline: as §1

| SMILES | IC50 [1] | IC50 [2] | IC50 [3] |
| --- | --- | --- | --- |
| CNC(=O)CNC1CCC(c2ccc3[nH]c(-c4cc(C)nc(C)c4)c(C(C)C)c3c2)CC1 (single isomer, unassigned) [Example 180, 2-((4-(2-(2,6-dimethylpyridin-4-yl)-3-isopropyl-1H-indol-5-yl)cyclohexyl)amino)-N-methylacetamide] | 2 nM | 277 nM | 4.5 nM |
| COc1cc(-c2[nH]c3ccc(C4CCCNC4)cc3c2C(C)C)cn2ncnc12 (single isomer, unassigned) [Example 182] | 1 nM | 2370 nM | 5.3 nM |
| COc1cc(-c2[nH]c3ccc(C4CCCNC4)cc3c2C(C)C)cn2ncnc12 (single isomer, unassigned) [Example 183] | 2 nM | 4630 nM | 7.9 nM |
| COc1cc(-c2[nH]c3ccc(C4CCCN(C(C)C)C4)cc3c2C(C)C)cn2ncnc12 (single isomer, unassigned) [Example 239] | 2 nM | 1370 nM | 3 nM |
| COCCN1CCCC(c2ccc3[nH]c(-c4cc(OC)c5ncnn5c4)c(C(C)C)c3c2)C1 (single isomer, unassigned) [Example 252] | 2 nM | 1160 nM | 1.6 nM |
| COc1cc(-c2[nH]c3ccc(C4CCC(N(C)C(C)C)C4)cc3c2C(C)C)cn2ncnc12 (single isomer, unassigned) [Example 275, N-isopropyl-3-(3-isopropyl-2-(8-methoxy-[1,2,4]triazolo[1,5-a]pyridin-6-yl)-1H-indol-5-yl)-N-methylcyclopentan-1-amine] | 0.86 nM | 1270 nM | 0.23 nM |
| COc1cc(-c2[nH]c3ccc(C4CCC(N(C)C(C)C)C4)cc3c2C(C)C)cn2ncnc12 (single isomer, unassigned) [Example 276, N-isopropyl-3-(3-isopropyl-2-(8-methoxy-[1,2,4]triazolo[1,5-a]pyridin-6-yl)-1H-indol-5-yl)-N-methylcyclopentan-1-amine] | 0.64 nM | 468 nM | 0.9 nM |
| COc1cc(-c2[nH]c3ccc(C4CCC(N(C)C(C)C)C4)cc3c2C(C)C)cn2ncnc12 (single isomer, unassigned) [Example 277, N-isopropyl-3-(3-isopropyl-2-(8-methoxy-[1,2,4]triazolo[1,5-a]pyridin-6-yl)-1H-indol-5-yl)-N-methylcyclopentan-1-amine] | 2 nM | 801 nM | 4.4 nM |
| COc1cc(-c2[nH]c3ccc(C4CCC(N(C)C(C)C)C4)cc3c2C(C)C)cn2ncnc12 (single isomer, unassigned) [Example 278, N-isopropyl-3-(3-isopropyl-2-(8-methoxy-[1,2,4]triazolo[1,5-a]pyridin-6-yl)-1H-indol-5-yl)-N-methylcyclopentan-1-amine] | 2 nM | 1410 nM | 1.5 nM |
| Cc1cc(-c2[nH]c3ccc(C4CN(CC(=O)N(C)C)CCO4)cc3c2C(C)C)cn2ncnc12 (single isomer, unassigned) [Example 308] | 8 nM | > 50000 nM | 18 nM |
| Cc1cc(-c2[nH]c3ccc(C4CN(CC(=O)N(C)C)CCO4)cc3c2C(C)C)cn2ncnc12 (single isomer, unassigned) [Example 316] | 9 nM | > 50000 nM | 55 nM |
| Cc1cc(-c2[nH]c3ccc(C4CN(CC(C)(C)O)CCO4)cc3c2C(C)C)cn2ncnc12 (single isomer, unassigned) [Example 356] | 6 nM | 6990 nM | 4.6 nM |
| Cc1cc(-c2[nH]c3ccc(C4CN5CCC4CC5)cc3c2C(C)C)cc(C)n1 (single isomer, unassigned) [Example 362, 3-(2-(2,6-dimethylpyridin-4-yl)-3-isopropyl-1H-indol-5-yl)quinuclidine] | 6 nM | 432 nM | 14 nM |
| Cc1cc(-c2[nH]c3ccc(C4CN5CCC4CC5)cc3c2C(C)C)cc(C)n1 (single isomer, unassigned) [Example 363, 3-(2-(2,6-dimethylpyridin-4-yl)-3-isopropyl-1H-indol-5-yl)quinuclidine] | 2 nM | 438 nM | 5.3 nM |
| Cc1cc(-c2[nH]c3ccc(C4CN(C(=O)CN(C)C)C(C)(C)CO4)cc3c2C(C)C)cn2ncnc12 (single isomer, unassigned) [Example 372, 2-(dimethylamino)-1-(2-(3-isopropyl-2-(8-methyl-[1,2,4]triazolo[1,5-a]pyridin-6-yl)-1H-indol-5-yl)-5,5-dimethylmorpholino)ethanone] | 8 nM | 26700 nM | 11 nM |
| Cc1cc(-c2[nH]c3ccc(C4CN(C(=O)CN(C)C)C(C)(C)CO4)cc3c2C(C)C)cn2ncnc12 (single isomer, unassigned) [Example 373, 2-(dimethylamino)-1-(2-(3-isopropyl-2-(8-methyl-[1,2,4]triazolo[1,5-a]pyridin-6-yl)-1H-indol-5-yl)-5,5-dimethylmorpholino)ethanone] | 6 nM | > 50000 nM | 36 nM |

— US11878975B2, “Substituted indole compounds useful as TLR inhibitors” (BRISTOL-MYERS SQUIBB COMPANY, priority 2017, dated 2024)
